Reference: ChEMBL document CHEMBL1201862, “PubChem BioAssay data set” (2004)
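Interpolation was linear, between the two tested concentrations surrounding the appropriate level; five concentrations were tested over 48 hours in 96-well plates. Here, GI50 denotes the concentration required for 50% inhibition of growth.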 The source made the active and inactive calls. No stated cut-off is given here; in the data, active = GI50 up to about 1.1 µM and inactive = higher.

Experiments:
Assay in all cases: NCI anticancer screen, dose series, 48 h
[1] = system: CCRF-CEM
[2] = system: HOP-62
[3] = system: SF-295
[4] = system: UACC-257
[5] = system: HCC 2998
[6] = system: EKVX
[7] = system: M19-MEL
[8] = system: OVCAR-5
[9] = system: SF-539
[10] = system: SK-OV-3
[11] = system: 786-0
[12] = system: ACHN
[13] = system: HOP-92
[14] = system: HT-29
[15] = system: SR
[16] = system: KM12
[17] = system: HCT-15
[18] = system: KM-20L2
[19] = system: M14
[20] = system: OVCAR-8
[21] = system: LXFL 529
[22] = system: NCI-H460
[23] = system: NCI-H522
[24] = system: TK-10
[25] = system: U-251
[26] = system: UO-31
[27] = system: MOLT-4
[28] = system: A498
[29] = system: RXF 393
[30] = system: SNB-78
[31] = system: IGROV-1
[32] = system: XF498
[33] = system: SW-620
[34] = system: SF-268
[35] = system: DMS-114
[36] = system: DMS-273
[37] = system: COLO 205
[38] = system: SK-MEL-28
[39] = system: SNB-19
[40] = system: A549
[41] = system: SK-MEL-2
[42] = system: SNB-75
[43] = system: NCI-H226
[44] = system: HOP-18
[45] = system: Malme-3M
[46] = system: SK-MEL-5
[47] = system: UACC-62
[48] = system: OVCAR-4
[49] = system: HL-60
[50] = system: SN12C
[51] = system: OVCAR-3
[52] = system: DLD-1
[53] = system: K562
[54] = system: CAKI-1
[55] = system: HCT-116
[56] = system: LOX IMVI
[57] = system: RPMI-8226
[58] = system: NCI-H23

## CC(=O)OC(C)(C)/C=C/C(=O)[C@](C)(O)[C@H]1[C@H](O)C[C@@]2(C)[C@@H]3CC=C4[C@@H](C[C@H](O)C(=O)C4(C)C)[C@]3(CO)C(=O)C[C@]12C [CUCURBITACIN A]
[1]
  GI50: 286 nM (active)
[2]
  GI50: 260 nM (active)
[3]
  GI50: 314 nM (active)
[4]
  GI50: 364 nM (active)
[5]
  GI50: 350 nM (active)
[6]
  GI50: 364 nM (active)
[7]
  GI50: 451 nM (active)
[8]
  GI50: 955 nM (active)
[9]
  GI50: 285 nM (active)
[10]
  GI50: 391 nM (active)
[11]
  GI50: 316 nM (active)
[12]
  GI50: 262 nM (active)
[13]
  GI50: 237 nM (active)
[14]
  GI50: 308 nM (active)
[15]
  GI50: 650 nM (active)
[16]
  GI50: 1100 nM (active)
[17]
  GI50: 468 nM
[18]
  GI50: 303 nM (active)
[19]
  GI50: 390 nM (active)
[20]
  GI50: 615 nM (active)
[21]
  GI50: 340 nM (active)
[22]
  GI50: 184 nM (active)
[23]
  GI50: 288 nM (active)
[24]
  GI50: 179 nM (active)
[25]
  GI50: 233 nM (active)
[26]
  GI50: 317 nM (active)
[27]
  GI50: 3100 nM (inactive)
[28]
  GI50: 231 nM (active)
[29]
  GI50: 208 nM (active)
[30]
  GI50: 330 nM (active)
[31]
  GI50: 634 nM (active)
[32]
  GI50: 374 nM (active)
[33]
  GI50: 367 nM (active)
[34]
  GI50: 168 nM (active)
[35]
  GI50: 483 nM (active)
[36]
  GI50: 149 nM (active)
[37]
  GI50: 318 nM (active)
[38]
  GI50: 132 nM (active)
[39]
  GI50: 249 nM (active)
[40]
  GI50: 391 nM (active)
[41]
  GI50: 100 nM (active)
[42]
  GI50: 131 nM (active)
[43]
  GI50: 76.2 nM (active)
[44]
  GI50: 148 nM (active)
[45]
  GI50: 344 nM (active)
[46]
  GI50: 316 nM (active)
[47]
  GI50: 543 nM (active)
[48]
  GI50: 348 nM (active)
[49]
  GI50: 335 nM (active)
[50]
  GI50: 448 nM (active)
[51]
  GI50: 446 nM (active)
[52]
  GI50: 337 nM (active)
[53]
  GI50: 445 nM (active)
[54]
  GI50: 243 nM (active)
[55]
  GI50: 437 nM (active)
[56]
  GI50: 207 nM (active)
[57]
  GI50: 94.2 nM (active)
[58]
  GI50: 536 nM (active)
